# Experimental data taken from ChEMBL document CHEMBL5154672, “Design and synthesis of HDAC inhibitors to enhance the therapeutic effect of diffuse large B-cell lymphoma by improving metabolic stability and pharmacokinetic characteristics” (Eur J Med Chem, 2022).
# Active and inactive are the calls of the source. The rule behind the calls is not given here.
# Tests used:
# [1] = molecular target: Histone deacetylase 4 (Homo sapiens) (UniProt P56524); test: Inhibition of HDAC4 (unknown origin) assessed as remaining enzyme activity at 1 uM using Boc-(Trifluoroacetyl) Lysine-AMC fluorogenic peptide as substrate preincubated for 10 mins followed by substrate addition for 30 mins in presence of ATP by fluoroscence based assay relative to control; conditions: time 40.0 min
# Chain of Histone deacetylase 4 (Homo sapiens) (P56524 whole entry): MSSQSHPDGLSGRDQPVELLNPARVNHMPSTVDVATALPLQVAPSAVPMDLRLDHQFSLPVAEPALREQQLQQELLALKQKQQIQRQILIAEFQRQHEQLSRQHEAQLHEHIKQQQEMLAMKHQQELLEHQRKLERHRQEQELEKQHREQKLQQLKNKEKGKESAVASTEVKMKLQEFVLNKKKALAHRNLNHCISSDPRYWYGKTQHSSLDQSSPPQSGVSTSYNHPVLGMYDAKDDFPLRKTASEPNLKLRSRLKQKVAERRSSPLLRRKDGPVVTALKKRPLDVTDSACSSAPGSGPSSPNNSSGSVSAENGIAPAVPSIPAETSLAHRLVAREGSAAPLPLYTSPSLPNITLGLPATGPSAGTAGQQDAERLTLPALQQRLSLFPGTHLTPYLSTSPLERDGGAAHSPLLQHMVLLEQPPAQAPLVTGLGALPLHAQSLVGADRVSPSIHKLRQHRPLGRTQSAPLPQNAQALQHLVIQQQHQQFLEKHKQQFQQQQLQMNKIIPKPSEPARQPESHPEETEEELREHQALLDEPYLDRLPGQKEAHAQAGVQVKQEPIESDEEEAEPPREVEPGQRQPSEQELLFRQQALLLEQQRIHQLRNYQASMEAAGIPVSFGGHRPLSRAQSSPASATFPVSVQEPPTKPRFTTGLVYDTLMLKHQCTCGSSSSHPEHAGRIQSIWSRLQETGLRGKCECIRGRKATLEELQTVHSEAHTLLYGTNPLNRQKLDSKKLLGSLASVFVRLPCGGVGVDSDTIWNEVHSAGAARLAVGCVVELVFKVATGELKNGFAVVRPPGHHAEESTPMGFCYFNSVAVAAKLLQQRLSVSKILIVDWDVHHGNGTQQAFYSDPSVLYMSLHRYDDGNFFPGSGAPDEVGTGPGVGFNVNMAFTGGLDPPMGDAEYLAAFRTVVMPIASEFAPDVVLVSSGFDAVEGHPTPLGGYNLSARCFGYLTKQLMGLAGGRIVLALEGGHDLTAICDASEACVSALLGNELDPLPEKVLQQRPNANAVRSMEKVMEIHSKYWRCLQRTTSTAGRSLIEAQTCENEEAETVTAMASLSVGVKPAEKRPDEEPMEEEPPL
# [2] = molecular target: Histone deacetylase 5 (Homo sapiens) (UniProt Q9UQL6); test: Inhibition of HDAC5 (unknown origin) assessed as remaining enzyme activity at 1 uM using Boc-(Trifluoroacetyl) Lysine-AMC fluorogenic peptide as substrate preincubated for 10 mins followed by substrate addition for 30 mins in presence of ATP by fluoroscence based assay relative to control; conditions: time 40.0 min
# Chain of Histone deacetylase 5 (Homo sapiens) (Q9UQL6 whole entry): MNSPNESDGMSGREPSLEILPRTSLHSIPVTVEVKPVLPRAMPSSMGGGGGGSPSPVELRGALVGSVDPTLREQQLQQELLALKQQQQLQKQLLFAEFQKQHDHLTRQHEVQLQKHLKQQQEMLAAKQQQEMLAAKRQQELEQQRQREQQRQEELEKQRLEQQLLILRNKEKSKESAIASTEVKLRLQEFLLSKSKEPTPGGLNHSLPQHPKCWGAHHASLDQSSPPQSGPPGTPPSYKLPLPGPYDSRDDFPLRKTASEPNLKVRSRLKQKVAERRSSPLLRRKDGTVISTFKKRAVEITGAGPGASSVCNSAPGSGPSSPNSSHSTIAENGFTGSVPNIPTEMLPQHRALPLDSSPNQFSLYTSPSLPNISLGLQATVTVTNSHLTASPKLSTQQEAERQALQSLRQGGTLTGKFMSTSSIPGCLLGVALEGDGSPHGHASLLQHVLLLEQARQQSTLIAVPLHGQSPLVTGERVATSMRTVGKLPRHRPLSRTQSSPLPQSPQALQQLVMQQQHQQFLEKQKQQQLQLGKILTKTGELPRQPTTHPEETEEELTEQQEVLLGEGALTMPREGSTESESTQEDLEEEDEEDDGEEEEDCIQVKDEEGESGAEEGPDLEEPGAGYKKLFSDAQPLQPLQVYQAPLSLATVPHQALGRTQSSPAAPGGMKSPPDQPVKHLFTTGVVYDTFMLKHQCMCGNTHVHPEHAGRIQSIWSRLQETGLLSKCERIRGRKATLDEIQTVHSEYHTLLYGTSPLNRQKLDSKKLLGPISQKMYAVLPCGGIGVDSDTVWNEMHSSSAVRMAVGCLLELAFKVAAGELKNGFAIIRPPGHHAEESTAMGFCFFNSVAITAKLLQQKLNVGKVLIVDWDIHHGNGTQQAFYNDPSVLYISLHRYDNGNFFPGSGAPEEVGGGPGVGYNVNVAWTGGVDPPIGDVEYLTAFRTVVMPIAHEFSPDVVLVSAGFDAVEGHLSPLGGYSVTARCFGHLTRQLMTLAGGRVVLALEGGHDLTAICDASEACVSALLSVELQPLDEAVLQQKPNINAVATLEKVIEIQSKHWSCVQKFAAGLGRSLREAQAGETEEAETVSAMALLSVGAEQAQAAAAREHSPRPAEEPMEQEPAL
# [3] = molecular target: Histone deacetylase 7 (Homo sapiens) (UniProt Q8WUI4); test: Inhibition of HDAC7 (unknown origin) assessed as remaining enzyme activity at 1 uM using Boc-(Trifluoroacetyl) Lysine-AMC fluorogenic peptide as substrate preincubated for 10 mins followed by substrate addition for 30 mins in presence of ATP by fluoroscence based assay relative to control; conditions: time 40.0 min
# Chain of Histone deacetylase 7 (Homo sapiens) (Q8WUI4 whole entry): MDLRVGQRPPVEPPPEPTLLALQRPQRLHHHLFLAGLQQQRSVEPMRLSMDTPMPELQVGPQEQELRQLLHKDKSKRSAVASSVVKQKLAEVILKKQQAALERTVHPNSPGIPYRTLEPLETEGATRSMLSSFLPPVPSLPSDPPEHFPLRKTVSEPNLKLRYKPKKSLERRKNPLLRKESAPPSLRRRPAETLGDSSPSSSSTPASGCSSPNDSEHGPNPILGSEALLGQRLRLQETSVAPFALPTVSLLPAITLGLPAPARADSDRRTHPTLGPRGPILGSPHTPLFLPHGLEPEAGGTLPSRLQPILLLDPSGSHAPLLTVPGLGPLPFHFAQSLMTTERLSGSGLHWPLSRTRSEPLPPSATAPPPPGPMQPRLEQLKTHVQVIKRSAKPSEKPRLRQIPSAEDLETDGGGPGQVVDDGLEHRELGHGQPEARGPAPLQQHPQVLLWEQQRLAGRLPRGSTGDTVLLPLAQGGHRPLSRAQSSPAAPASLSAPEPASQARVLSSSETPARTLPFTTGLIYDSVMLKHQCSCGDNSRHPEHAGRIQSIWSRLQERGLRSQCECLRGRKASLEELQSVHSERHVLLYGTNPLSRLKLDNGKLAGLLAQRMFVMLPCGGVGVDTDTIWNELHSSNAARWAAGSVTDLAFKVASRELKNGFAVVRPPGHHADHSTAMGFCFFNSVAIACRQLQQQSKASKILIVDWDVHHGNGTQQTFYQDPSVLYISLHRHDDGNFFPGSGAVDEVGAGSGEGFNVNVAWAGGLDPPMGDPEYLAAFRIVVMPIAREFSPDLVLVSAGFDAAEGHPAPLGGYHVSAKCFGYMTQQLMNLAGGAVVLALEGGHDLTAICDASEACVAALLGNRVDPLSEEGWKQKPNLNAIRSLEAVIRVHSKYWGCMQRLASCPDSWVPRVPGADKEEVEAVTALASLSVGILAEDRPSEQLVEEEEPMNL
# [4] = molecular target: Histone deacetylase 9 (Homo sapiens) (UniProt Q9UKV0); test: Inhibition of HDAC9 (unknown origin) assessed as remaining enzyme activity at 1 uM using Boc-(Trifluoroacetyl) Lysine-AMC fluorogenic peptide as substrate preincubated for 10 mins followed by substrate addition for 30 mins in presence of ATP by fluoroscence based assay relative to control; conditions: time 40.0 min
# [5] = molecular target: Protein deacetylase HDAC6 (Homo sapiens) (UniProt Q9UBN7); test: Inhibition of HDAC6 (unknown origin) assessed as remaining enzyme activity at 1 uM using RHKK(Ac)AMC fluorogenic peptide as substrate preincubated for 10 mins followed by substrate addition for 1 hr in presence of ATP by fluoroscence based assay relative to control; conditions: time 70.0 min
# [6] = molecular target: Histone deacetylase 11 (Homo sapiens) (UniProt Q96DB2); test: Inhibition of HDAC11 (unknown origin) assessed as remaining activity using (Boc-(Trifluoroacetyl) Lysine-AMC) fluorogenic peptide as substrate preincubated for 10 mins followed by substrate addition for 30 mins in presence of ATP by fluoroscence assay relative to control; conditions: time 40.0 min
# Chain of Histone deacetylase 11 (Homo sapiens) (Q96DB2 whole entry): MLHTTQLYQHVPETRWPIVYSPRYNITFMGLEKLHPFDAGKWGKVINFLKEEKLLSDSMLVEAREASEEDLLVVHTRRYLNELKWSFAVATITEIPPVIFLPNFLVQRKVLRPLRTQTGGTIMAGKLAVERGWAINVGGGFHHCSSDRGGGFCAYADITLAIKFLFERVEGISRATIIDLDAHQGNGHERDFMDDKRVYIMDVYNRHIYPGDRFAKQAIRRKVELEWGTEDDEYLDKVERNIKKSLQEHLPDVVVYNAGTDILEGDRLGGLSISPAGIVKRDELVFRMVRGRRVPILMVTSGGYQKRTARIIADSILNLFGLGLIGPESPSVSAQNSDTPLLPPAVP
# TMD8 [7] = test: In vivo antitumor activity against TMD8 cells xenografted in CB.17 SCID mouse assessed as inhibition of tumor growth at 50 mg/kg/day, po for 21 consecutive days measured every 3 days by Vernier caliper; assay type: functional, organism-based; conditions: Homo sapiens, time 21.0 day
# Histone deacetylase 1 [8] = molecular target: T1, Histone deacetylase 1 (Homo sapiens, UniProt Q13547); test: Inhibition of HDAC1 in human TMD8 cells assessed as histone H3 acetylation after 24 hrs by Western blot analysis; assay type: cell-based; conditions: dose 2.5-10 µM, DDE = dose-dependent effect
# T1 sequence (Q13547 whole entry): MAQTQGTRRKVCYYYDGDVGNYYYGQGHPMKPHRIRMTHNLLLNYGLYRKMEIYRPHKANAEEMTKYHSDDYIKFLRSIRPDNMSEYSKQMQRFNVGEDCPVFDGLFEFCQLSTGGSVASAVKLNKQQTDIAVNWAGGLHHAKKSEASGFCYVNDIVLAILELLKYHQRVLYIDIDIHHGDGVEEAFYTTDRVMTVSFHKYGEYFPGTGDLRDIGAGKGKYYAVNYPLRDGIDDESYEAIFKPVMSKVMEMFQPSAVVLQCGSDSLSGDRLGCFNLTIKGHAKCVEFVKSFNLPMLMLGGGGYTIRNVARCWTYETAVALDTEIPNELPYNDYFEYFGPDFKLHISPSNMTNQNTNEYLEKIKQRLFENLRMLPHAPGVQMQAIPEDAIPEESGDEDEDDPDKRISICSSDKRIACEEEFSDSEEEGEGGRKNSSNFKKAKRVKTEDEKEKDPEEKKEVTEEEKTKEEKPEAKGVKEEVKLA
# Histone deacetylase 1 [9] = molecular target: T1, Histone deacetylase 1; test: Inhibition of HDAC1 in human TMD8 cells assessed as histone H4 acetylation after 24 hrs by Western blot analysis; assay type: cell-based; conditions: dose 2.5-10 µM, DDE = dose-dependent effect
# Histone deacetylase 2 [10] = molecular target: T2, Histone deacetylase 2 (Homo sapiens, UniProt Q92769); test: Inhibition of HDAC2 in human TMD8 cells assessed as histone H3 acetylation after 24 hrs by Western blot analysis; assay type: cell-based; conditions: dose 2.5-10 µM, DDE = dose-dependent effect
# T2 sequence (Q92769 whole entry): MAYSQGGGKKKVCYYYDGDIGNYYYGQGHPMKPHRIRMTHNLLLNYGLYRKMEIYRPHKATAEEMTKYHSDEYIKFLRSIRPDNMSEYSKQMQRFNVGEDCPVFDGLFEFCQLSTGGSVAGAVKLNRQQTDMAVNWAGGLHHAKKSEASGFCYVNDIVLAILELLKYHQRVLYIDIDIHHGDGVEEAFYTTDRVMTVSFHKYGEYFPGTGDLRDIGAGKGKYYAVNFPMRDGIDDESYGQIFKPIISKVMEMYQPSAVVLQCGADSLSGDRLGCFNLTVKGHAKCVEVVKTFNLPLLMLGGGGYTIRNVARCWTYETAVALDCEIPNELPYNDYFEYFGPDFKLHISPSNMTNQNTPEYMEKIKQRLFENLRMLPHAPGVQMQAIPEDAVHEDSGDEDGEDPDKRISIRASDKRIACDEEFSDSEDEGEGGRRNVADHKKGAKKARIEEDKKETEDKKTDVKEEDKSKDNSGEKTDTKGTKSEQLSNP
# Histone deacetylase 2 [11] = molecular target: T2, Histone deacetylase 2; test: Inhibition of HDAC2 in human TMD8 cells assessed as histone H4 acetylation after 24 hrs by Western blot analysis; assay type: cell-based; conditions: dose 2.5-10 µM, DDE = dose-dependent effect
# Histone deacetylase 3 [12] = molecular target: T3, Histone deacetylase 3 (Homo sapiens, UniProt O15379); test: Inhibition of HDAC3 in human TMD8 cells assessed as histone H3 acetylation after 24 hrs by Western blot analysis; assay type: cell-based; conditions: dose 2.5-10 µM, DDE = dose-dependent effect
# T3 sequence (O15379 whole entry): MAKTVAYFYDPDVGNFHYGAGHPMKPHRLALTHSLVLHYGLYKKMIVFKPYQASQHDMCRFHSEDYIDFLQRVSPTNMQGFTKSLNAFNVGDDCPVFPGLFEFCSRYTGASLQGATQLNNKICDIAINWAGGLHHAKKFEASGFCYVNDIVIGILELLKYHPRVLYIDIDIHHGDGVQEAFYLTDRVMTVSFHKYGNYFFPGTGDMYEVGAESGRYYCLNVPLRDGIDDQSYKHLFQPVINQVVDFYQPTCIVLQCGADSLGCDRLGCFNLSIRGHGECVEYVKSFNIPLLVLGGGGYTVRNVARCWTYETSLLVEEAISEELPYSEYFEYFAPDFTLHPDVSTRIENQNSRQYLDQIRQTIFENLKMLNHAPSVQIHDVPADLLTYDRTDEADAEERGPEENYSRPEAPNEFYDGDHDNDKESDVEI
# Histone deacetylase 3 [13] = molecular target: T3, Histone deacetylase 3; test: Inhibition of HDAC3 in human TMD8 cells assessed as histone H4 acetylation after 24 hrs by Western blot analysis; assay type: cell-based; conditions: dose 2.5-10 µM, DDE = dose-dependent effect
# TMD8 [14] = test: Induction of apoptosis in human TMD8 cells assessed as cleavage of inactive caspase-3 at 2.5 to 10 uM after 24 hrs by Western blot analysis; assay type: functional, cell-based; conditions: dose 2.5-10 µM
# TMD8 [15] = test: Induction of apoptosis in human TMD8 cells assessed as increase in cleaved caspase-3 levels at 2.5 to 10 uM after 24 hrs by Western blot analysis; assay type: functional, cell-based; conditions: dose 2.5-10 µM
# TMD8 [16] = test: Induction of apoptosis in human TMD8 cells assessed as increase in cleaved PARP levels at 2.5 to 10 uM after 24 hrs by Western blot analysis; assay type: functional, cell-based; conditions: dose 2.5-10 µM
# Mus musculus = test: Upregulation of acetylated-H3 levels in CB.17 SCID mouse xenografted with human TMD8 cells at 50 to 100 mg/kg/day, po measured after 21 days by Western blot analysis; assay type: functional, organism-based; conditions: dose 50-100 mg/kg/day, time 21.0 day
# TMD8 [17] = test: Induction of cell cycle arrest in human TMD8 cells assessed as accumulation of cells at G2/M phase incubated for 24 hrs by propidium iodide based flow cytometric analysis; assay type: functional; conditions: dose 0.25-1 µM, DDE = dose-dependent effect
# DLBCL = test: Cytotoxicity against human DLBCL cells assessed as cell growth inhibition; assay type: functional, cell-based
# TMD8 [18] = test: Induction of apoptosis in human TMD8 cells incubated for 24 hrs by propidium iodide based flow cytometric analysis; assay type: functional, cell-based; conditions: dose 0.25-1 µM, DDE = dose-dependent effect
compound,measurement,setting,value
Nc1ccccc1NC(=O)c1ccc(CN2CCC/C(=C\c3ccccn3)C2=O)cc1,Activity,[1],81.2%
same,Activity,[2],84.4%
same,Activity,[3],88.1%
same,Activity,[4],92.3%
same,Activity,[5],96.9%
same,Activity,[6],92%
same,Activity,TMD8 [7],Active
same,inhibition,Histone deacetylase 1 [8],Dde
same,inhibition,Histone deacetylase 1 [9],Dde
same,inhibition,Histone deacetylase 2 [10],Dde
same,inhibition,Histone deacetylase 2 [11],Dde
same,inhibition,Histone deacetylase 3 [12],Dde
same,inhibition,Histone deacetylase 3 [13],Dde
same,Activity,TMD8 [14],Active
same,Activity,TMD8 [15],Active
same,Activity,TMD8 [16],Active
same,Activity,Mus musculus,Active
same,Activity,TMD8 [17],Dde
same,Activity,DLBCL,Active
same,Activity,TMD8 [18],Dde
